Laboratory results reported in PubChem BioAssay AID330 (DTP/NCI, 2004).
Values joined by “and” are separate entries in the source; they are usually repeats but may differ in a detail not shown here. Identical values can stand only once. Toxic doses and inconclusive results are not listed. Square brackets hold non-standard residues; d marks the D form. Peptide text beside a SMILES is read from it. * marks the point of attachment. Cbz = O=C(OCc1ccccc1)*; Dha = C=C(N)C(=O)O

System: P388 leukemia ip, CD2F1 mice, survival T/C
Assay: NCI In Vivo Anticancer Drug Screen. Data for tumor model P388 Leukemia (intraperitoneal) in CD2F1 (CDF1) mice
Settings: endpoint: median survival time, higher = longer survival
Procedure, shortened: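 Mice carrying the transplanted tumor received test compound or vehicle. Survival was recorded in each group, and the value is the treated-group measurement divided by that of the vehicle-treated control group.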

[1] = dose: 50.0 mg/kg/injection, schedule: Q01DX005 (ip), vehicle: Klucel (hydroxypropylcellulose) (HPC)
[2] = dose: 100.0 mg/kg/injection, schedule: Q01DX005 (ip), vehicle: Klucel (hydroxypropylcellulose) (HPC)
[3] = dose: 200.0 mg/kg/injection, schedule: Q01DX005 (ip), vehicle: Klucel (hydroxypropylcellulose) (HPC)
[4] = dose: 50.0 mg/kg/injection, schedule: Q01DX009 (ip), vehicle: saline with Tween-80
[5] = dose: 100.0 mg/kg/injection, schedule: Q01DX009 (ip), vehicle: saline with Tween-80
[6] = dose: 200.0 mg/kg/injection, schedule: Q01DX009 (ip), vehicle: saline with Tween-80
[7] = dose: 50.0 mg/kg/injection, schedule: Q01DX005 (ip), vehicle: saline with Tween-80
[8] = dose: 100.0 mg/kg/injection, schedule: Q01DX005 (ip), vehicle: saline with Tween-80
[9] = dose: 200.0 mg/kg/injection, schedule: Q01DX005 (ip), vehicle: saline with Tween-80
[10] = dose: 60.0 mg/kg/injection, schedule: Q01DX005 (ip), vehicle: saline with Tween-80
[11] = dose: 120.0 mg/kg/injection, schedule: Q01DX005 (ip), vehicle: saline with Tween-80
[12] = dose: 240.0 mg/kg/injection, schedule: Q01DX005 (ip), vehicle: saline with Tween-80
[13] = dose: 50.0 mg/kg/injection, schedule: Q01DX009 (ip), vehicle: saline
[14] = dose: 100.0 mg/kg/injection, schedule: Q01DX009 (ip), vehicle: saline
[15] = dose: 50.0 mg/kg/injection, schedule: Q01DX009 (ip), vehicle: Klucel (hydroxypropylcellulose) (HPC)
[16] = dose: 100.0 mg/kg/injection, schedule: Q01DX009 (ip), vehicle: Klucel (hydroxypropylcellulose) (HPC)
[17] = dose: 200.0 mg/kg/injection, schedule: Q01DX009 (ip), vehicle: Klucel (hydroxypropylcellulose) (HPC)

## CC1(C)CC(OP(=S)(OC2CC(C)(C)N(O)C(C)(C)C2)N2CC2)CC(C)(C)N1O
dose: 50.0 mg/kg/injection, schedule: Q01DX009 (ip), vehicle: saline + alcohol
  T/C: 124 % of control
dose: 200.0 mg/kg/injection, schedule: Q01DX009 (ip), vehicle: saline + alcohol
  T/C: 168 % of control

## S=C(NCCl)NCc1ccccc1
[1]
  T/C: 105 % of control
[2]
  T/C: 100 % of control
[3]
  T/C: 105 % of control

## CC(C)N(C(C)C)C1C2=C(CCSC2)OC(=O)C1(Cl)Cl (centres undefined)
[4]
  T/C: 103 % of control
[5]
  T/C: 100 % of control
[6]
  T/C: 96 % of control

## CC(=O)OCC12CC(c3ccoc3)OC3CCC4C(=O)OC(CC1C)C4(C)C32 (centres undefined)
dose: 5.25 mg/kg/injection, schedule: Q01DX005 (ip), vehicle: Klucel (hydroxypropylcellulose) (HPC)
  T/C: 106 % of control
dose: 10.5 mg/kg/injection, schedule: Q01DX005 (ip), vehicle: Klucel (hydroxypropylcellulose) (HPC)
  T/C: 95 % of control
dose: 21.0 mg/kg/injection, schedule: Q01DX005 (ip), vehicle: Klucel (hydroxypropylcellulose) (HPC)
  T/C: 100 % of control
dose: 42.0 mg/kg/injection, schedule: Q01DX005 (ip), vehicle: Klucel (hydroxypropylcellulose) (HPC)
  T/C: 93 % of control

## COc1cc2cc(c1Cl)N(C)C(=O)CC(OC(=O)C(C)NC(=O)C(C)C)C1(C)OC1C(C)C1CC(O)(NC(=O)O1)C(OC)/C=C/C=C(C)C2OC (centres undefined)
dose: 32.0 micrograms/kg/injection, schedule: Q01DX009 (ip), vehicle: distilled water + alcohol
  T/C: 159 % of control

## NC1(c2ccccc2)CC2CCC1C2 (centres undefined)
dose: 12.5 mg/kg/injection, schedule: Q01DX001 (ip), vehicle: Klucel (hydroxypropylcellulose) (HPC)
  T/C: 100 % of control
dose: 25.0 mg/kg/injection, schedule: Q01DX001 (ip), vehicle: Klucel (hydroxypropylcellulose) (HPC)
  T/C: 100 % of control
dose: 50.0 mg/kg/injection, schedule: Q01DX001 (ip), vehicle: Klucel (hydroxypropylcellulose) (HPC)
  T/C: 100 % of control

## O=C(CCl)NC(O)C(Cl)(Cl)Cl (centres undefined)
[7]
  T/C: 101 % of control
[8]
  T/C: 99 % of control
[9]
  T/C: 103 % of control

## CCOC(=O)CNc1sc(=S)[nH]c1C(=O)OCC
[1]
  T/C: 100 % of control
[2]
  T/C: 91 % of control
[3]
  T/C: 92 % of control

## COc1ccc2nc(Cl)c(CBr)c(CBr)c2c1
dose: 12.5 mg/kg/injection, schedule: Q01DX005 (ip), vehicle: Klucel (hydroxypropylcellulose) (HPC)
  T/C: 98 % of control
[1]
  T/C: 117 % of control

## O=C(NNC(=S)Nc1ccccc1)c1ccncc1
[4]
  T/C: 107 % of control
[5]
  T/C: 107 % of control
[6]
  T/C: 107 % of control

## C[C@@]1(CO)CCc2c(c3ccccc3oc2=O)O1
[10]
  T/C: 94 % of control
[11]
  T/C: 92 % of control
[12]
  T/C: 90 % of control

## COc1ccc(NC(=O)/C=C\C(=O)O)cc1OC
[7]
  T/C: 96 % of control
[8]
  T/C: 96 % of control
[9]
  T/C: 96 % of control

## Cn1c(=S)[nH]c2sc3c(c2c1=O)CCC3
[10]
  T/C: 96 % of control
[11]
  T/C: 93 % of control
[12]
  T/C: 89 % of control

## COC(=O)CS(=O)(=O)CCCCS(=O)(=O)CC(=O)OC
[13]
  T/C: 99 % of control
[14]
  T/C: 99 % of control
dose: 200.0 mg/kg/injection, schedule: Q01DX009 (ip), vehicle: saline
  T/C: 103 % of control

## CP1(=S)CCC2=C1CCc1cc(O)ccc12 (centres undefined)
[15]
  T/C: 104 % of control
[16]
  T/C: 104 % of control
[17]
  T/C: 101 % of control

## Oc1cc2c(cc1C(Nc1ncccn1)c1ccc(F)cc1)OCO2 (centres undefined)
[10]
  T/C: 99 % of control
[11]
  T/C: 91 % of control
[12]
  T/C: 92 % of control

## CS(=O)(=O)OCC#CCOS(C)(=O)=O
dose: 1.56 mg/kg/injection, schedule: Q01DX009 (ip), vehicle: Klucel (hydroxypropylcellulose) (HPC)
  T/C: 109 % of control
dose: 3.12 mg/kg/injection, schedule: Q01DX009 (ip), vehicle: Klucel (hydroxypropylcellulose) (HPC)
  T/C: 120 % of control

## CN(C)C1=Nc2ccccc2NC(=O)C1
[1]
  T/C: 105 % of control
[2]
  T/C: 105 % of control
[3]
  T/C: 105 % of control

## COc1ccc(OC)c(CCN2C(=O)c3cccc4c([N+](=O)[O-])ccc(c34)C2=O)c1
[15]
  T/C: 98 % of control
[16]
  T/C: 106 % of control
[17]
  T/C: 113 % of control

## NP1(N)=NP(N)(N)=NP(N)(N)=NP(N)(N)=N1
[1]
  T/C: 96 % of control
[2]
  T/C: 96 % of control
[3]
  T/C: 99 % of control

## COc1ccc(N2CCN(/C=C3\Cc4c(F)cccc4C3=O)CC2)cc1
dose: 100.0 mg/kg/injection, schedule: Q04DX003 (ip), vehicle: Klucel (hydroxypropylcellulose) (HPC)
  T/C: 97 % of control
dose: 200.0 mg/kg/injection, schedule: Q04DX003 (ip), vehicle: Klucel (hydroxypropylcellulose) (HPC)
  T/C: 103 % of control
dose: 400.0 mg/kg/injection, schedule: Q04DX003 (ip), vehicle: Klucel (hydroxypropylcellulose) (HPC)
  T/C: 101 % of control

## Cc1c(NC(=S)Nc2ccc(Cl)c(Cl)c2)c(=O)n(-c2ccccc2)n1C
[15]
  T/C: 106 % of control
[16]
  T/C: 93 % of control
[17]
  T/C: 88 % of control

## CN(C)NC(=S)Sc1ccccc1
[15]
  T/C: 100 % of control
[16]
  T/C: 99 % of control

## NC1CCNC(O)[N-]1.NC1CCNC(O)[N-]1.[Cl][Pd][Cl] (centres undefined)
dose: 60.0 mg/kg/injection, schedule: Q01DX005 (ip), vehicle: Klucel (hydroxypropylcellulose) (HPC)
  T/C: 97 % of control
dose: 120.0 mg/kg/injection, schedule: Q01DX005 (ip), vehicle: Klucel (hydroxypropylcellulose) (HPC)
  T/C: 103 % of control
dose: 240.0 mg/kg/injection, schedule: Q01DX005 (ip), vehicle: Klucel (hydroxypropylcellulose) (HPC)
  T/C: 112 % of control

## c1ccc2c(c1)Cc1c(-c3noc4c3Cc3ccccc3-4)noc1-2
dose: 60.0 mg/kg/injection, schedule: Q01DX005 (ip), vehicle: Klucel + Tween-80
  T/C: 100 % of control
dose: 120.0 mg/kg/injection, schedule: Q01DX005 (ip), vehicle: Klucel + Tween-80
  T/C: 90 % of control
dose: 240.0 mg/kg/injection, schedule: Q01DX005 (ip), vehicle: Klucel + Tween-80
  T/C: 91 % of control

## O=C1CCc2nc(-c3ccccc3)ncc21
dose: 100.0 mg/kg/injection, schedule: Q04DX003 (ip), vehicle: saline with Tween-80
  T/C: 99 % of control
dose: 200.0 mg/kg/injection, schedule: Q04DX003 (ip), vehicle: saline with Tween-80
  T/C: 89 % of control
dose: 400.0 mg/kg/injection, schedule: Q04DX003 (ip), vehicle: saline with Tween-80
  T/C: 88 % of control

## O=[N+]([O-])/C=C/c1cc2c(cc1Cl)OCO2
[1]
  T/C: 107 % of control
[2]
  T/C: 111 % of control
[3]
  T/C: 95 % of control

## CC(C)(O)C#C[Si](C)(C)C
[7]
  T/C: 98 % of control
[8]
  T/C: 103 % of control
[9]
  T/C: 94 % of control

## CC(=O)O[C@@H]1C[C@@]2(C)C(C)(C)C(=O)C=C[C@]2(C)[C@H]2CC[C@]3(C)C(=CC(=O)C3c3ccoc3)[C@]12C (some centres undefined)
dose: 8.5 mg/kg/injection, schedule: Q01DX005 (ip), vehicle: Klucel (hydroxypropylcellulose) (HPC)
  T/C: 104 % of control
dose: 17.0 mg/kg/injection, schedule: Q01DX005 (ip), vehicle: Klucel (hydroxypropylcellulose) (HPC)
  T/C: 96 % of control
dose: 34.0 mg/kg/injection, schedule: Q01DX005 (ip), vehicle: Klucel (hydroxypropylcellulose) (HPC)
  T/C: 98 % of control
dose: 68.0 mg/kg/injection, schedule: Q01DX005 (ip), vehicle: Klucel (hydroxypropylcellulose) (HPC)
  T/C: 92 % of control
dose: 136.0 mg/kg/injection, schedule: Q01DX005 (ip), vehicle: Klucel (hydroxypropylcellulose) (HPC)
  T/C: 92 % of control

## CN(C)C1C(O)C2Oc3c(cc(O)c4c3C(=O)c3cc5c(c(O)c3C4=O)C(OCCBr)CC(C)(O)C5)C(C)(O2)C1O (centres undefined)
dose: 2.0 mg/kg/injection, schedule: Q01DX009 (ip), vehicle: other
  T/C: 150 % of control
dose: 4.0 mg/kg/injection, schedule: Q01DX009 (ip), vehicle: other
  T/C: 154 % of control
dose: 8.0 mg/kg/injection, schedule: Q01DX009 (ip), vehicle: other
  T/C: 157 % of control
dose: 16.0 mg/kg/injection, schedule: Q01DX009 (ip), vehicle: other
  T/C: 159 % of control

## CCOC(=O)NCCCCCCNC(=O)OCC
[1]
  T/C: 99 % of control and 90 % of control
[2]
  T/C: 90 % of control and 95 % of control
[3]
  T/C: 93 % of control and 98 % of control

## C=C(NC(=O)C(C)NC(=O)OCc1ccccc1)C(=O)N1CCCC1C(=O)NC(C)C(=O)NC (centres undefined) (Cbz-A[Dha]PA-NHMe; configuration not given here)
dose: 25.0 mg/kg/injection, schedule: Q01DX009 (ip), vehicle: saline
  T/C: 111 % of control
[13]
  T/C: 100 % of control
[14]
  T/C: 96 % of control
